Source: patent publication US7098340B2, “Benzyl sulfonamide derivatives” (Warner Lambert Company LLC, priority 2003, dated 2006)

These compounds were tested against T1, androgen receptor (Homo sapiens, UniProt P10275) (assay: AR Antagonist Cell Assay (MMTV-luciferase reporter, DHT-stimulated)). Conditions: MDA-MB453-MMTV clone 54-19 cells; antagonism of 100 pM DHT, 17 hr, luciferase readout.
T1 sequence (P10275 1-920 Q868H): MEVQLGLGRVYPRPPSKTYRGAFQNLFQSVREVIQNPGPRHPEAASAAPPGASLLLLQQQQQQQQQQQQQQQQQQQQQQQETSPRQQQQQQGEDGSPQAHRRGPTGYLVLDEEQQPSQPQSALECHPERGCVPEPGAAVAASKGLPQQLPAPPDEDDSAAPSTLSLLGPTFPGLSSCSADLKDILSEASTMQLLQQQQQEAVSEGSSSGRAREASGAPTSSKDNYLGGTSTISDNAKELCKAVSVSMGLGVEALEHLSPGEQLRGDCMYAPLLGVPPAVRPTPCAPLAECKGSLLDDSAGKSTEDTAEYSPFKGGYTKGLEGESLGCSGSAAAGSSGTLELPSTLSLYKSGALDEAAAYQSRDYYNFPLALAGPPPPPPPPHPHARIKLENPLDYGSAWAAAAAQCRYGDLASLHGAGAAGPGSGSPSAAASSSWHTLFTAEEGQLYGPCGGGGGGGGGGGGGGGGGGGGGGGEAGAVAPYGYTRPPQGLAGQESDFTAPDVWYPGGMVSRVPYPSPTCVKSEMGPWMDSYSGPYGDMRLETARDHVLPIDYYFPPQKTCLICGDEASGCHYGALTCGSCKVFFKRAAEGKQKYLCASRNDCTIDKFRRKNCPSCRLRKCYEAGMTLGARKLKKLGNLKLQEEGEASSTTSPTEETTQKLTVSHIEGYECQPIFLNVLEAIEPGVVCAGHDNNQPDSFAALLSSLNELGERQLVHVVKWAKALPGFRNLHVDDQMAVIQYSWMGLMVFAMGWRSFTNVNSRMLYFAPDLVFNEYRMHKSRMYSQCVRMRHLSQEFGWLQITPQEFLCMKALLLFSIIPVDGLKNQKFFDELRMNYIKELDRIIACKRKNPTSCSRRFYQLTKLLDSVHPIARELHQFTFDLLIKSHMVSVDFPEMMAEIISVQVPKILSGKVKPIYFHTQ
Type: cell-based
Procedure: The compounds ability to antagonize the effects of androgen on the androgen receptor were determined in the protocol described immediately below.
Experimental Procedure for AR Antagonist Cell Assay
Cell line: MDA-MB453-MMTV clone 54–19. This cell line is a stable transfected cell line with MDA-MB453 cell background (human breast tumor cell expressing high level of androgen receptor). A MMTV minimal promoter containing ARE was first cloned in front of a firefly luciferase reporter gene. Then the cascade was cloned into transfection vector pUV120puro. Electroporation method was used for transfecting MDA-MB-453 cell. Puromycin resistant stable cell line was selected.
Cell Culture Media and Reagents:
Culture medium: DMEM (high glucose, Gibco cat #: 11960-044), 10% FBS, and 1% L-glutamine
Plating medium: DMEM (phenol red free), 10% charcoal treated HyClone serum, 1% L-glutamine
Assay medium: DMEM (phenol red free), 1% charcoal treated HyClone serum, 1% L-glutamine, and 1% penicillin/streptomycin
3× luciferase buffer: 2% beta-mercaptoethanol, 0.6% ATP, 0.0135% luciferine in cell lysis buffer
• 1. Cells are maintained in culture medium, splitting cells when they reach 80–90% confluence • 2. To test compounds, 10,000 cells/well are plated to opaque 96 cell culture plate in 100 ul/well plating medium, culture for overnight at 37° C. in cell culture incubator • 3. Carefully remove plating medium, then add 80 ul/well of pre-warmed assay medium, add 10 ul/well testing compound (final concentration at 10 uM or 1 uM), incubate at 37° C. for 30 minutes • 4. Add 10 ul/well freshly prepared DHT (final concentration at 100 pM) to each well, incubate at 37° C. for 17 hr (overnight) • 5. Add 50 ul/well 3× luciferase buffer, incubate at room temperature for 5 minutes, then count on Luminometer.
The fold induction over background by 100 pM DHT in the absence of testing compounds is standardized as 100% and experimental result is expressed as percentage of inhibition by testing compounds.

Question: Which IC50 does the source give for `CC(C)(C)CCNS(=O)(=O)c1ccc(Cc2ccc3[nH]c(=O)cc(C(F)(F)F)c3c2)cc1` [Example 54, N-(3,3-Dimethylbutyl)-4-(2-oxo-4-trifluoromethyl-1,2-dihydroquinolin-6-ylmethyl)-benzenesulfonamide] here?
Answer: > 10 µM

Question: `Cc1ccc(CNS(=O)(=O)c2ccc(Cc3ccc4[nH]c(=O)cc(C(F)(F)F)c4c3)cc2)o1` [Example 55, N-(5-Methylfuran-2-ylmethyl)-4-(2-oxo-4-trifluoromethyl-1,2-dihydroquinolin-6-ylmethyl)-benzenesulfonamide] was tested. Which IC50 did it give?
Answer: > 10 µM

Question: Which IC50 does the source give for `O=c1cc(C(F)(F)F)c2cc(Cc3ccc(S(=O)(=O)NCCN4CCCC4)cc3)ccc2[nH]1` [Example 56, 4-(2-Oxo-4-trifluoromethyl-1,2-dihydroquinolin-6-ylmethyl)-N-(2-pyrrolidin-1-yl-ethyl)-benzenesulfonamide] here?
Answer: 3.64 µM

Question: For `O=c1cc(C(F)(F)F)c2cc(Cc3ccc(S(=O)(=O)NCCc4ccccc4)cc3)ccc2[nH]1` [Example 57, 4-(2-Oxo-4-trifluoromethyl-1,2-dihydroquinolin-6-ylmethyl)-N-phenethylbenzenesulfonamide], which IC50 is on record?
Answer: > 10 µM

Question: For `Cc1cccc(CNS(=O)(=O)c2ccc(Cc3ccc4[nH]c(=O)cc(C(F)(F)F)c4c3)cc2)c1` [Example 58, N-(3-Methylbenzyl)-4-(2-oxo-4-trifluoromethyl-1,2-dihydroquinolin-6-ylmethyl)-benzenesulfonamide], which IC50 is on record?
Answer: > 10 µM

Question: With `O=c1cc(C(F)(F)F)c2cc(Cc3ccc(S(=O)(=O)NCCc4ccccn4)cc3)ccc2[nH]1` [Example 59, 4-(2-Oxo-4-trifluoromethyl-1,2-dihydroquinolin-6-ylmethyl)-N-(2-pyridin-2-ylethyl)-benzenesulfonamide] as the compound, how does the IC50 read?
Answer: 9.25 µM

Question: `O=c1cc(C(F)(F)F)c2cc(Cc3ccc(S(=O)(=O)NCCCn4ccnc4)cc3)ccc2[nH]1` [Example 60, N-(3-Imidazol-1-ylpropyl)-4-(2-oxo-4-trifluoromethyl-1,2-dihydroquinolin-6-ylmethyl)-benzenesulfonamide] was tested. Which IC50 did it give?
Answer: 9.16 µM

Question: With `O=c1cc(C(F)(F)F)c2cc(Cc3ccc(S(=O)(=O)NCCN4CCOCC4)cc3)ccc2[nH]1` [Example 62, N-(2-Morpholin-4-ylethyl)-4-(2-oxo-4-trifluoromethyl-1,2-dihydroquinolin-6-ylmethyl)-benzenesulfonamide] as the compound, how does the IC50 read?
Answer: 6.66 µM

Question: `CC(CNS(=O)(=O)c1ccc(Cc2ccc3[nH]c(=O)cc(C(F)(F)F)c3c2)cc1)c1ccccc1` (centres unmarked) [Example 65, 4-(2-Oxo-4-trifluoromethyl-1,2-dihydroquinolin-6-ylmethyl)-N-(2-phenylpropyl)-benzenesulfonamide] was tested. Which IC50 did it give?
Answer: 5.38 µM

Question: How did the IC50 turn out when `Cc1ccc(F)cc1CNS(=O)(=O)c1ccc(Cc2ccc3[nH]c(=O)cc(C(F)(F)F)c3c2)cc1` [Example 67, N-(5-Fluoro-2-methylbenzyl)-4-(2-oxo-4-trifluoromethyl-1,2-dihydroquinolin-6-ylmethyl)-benzenesulfonamide] was run?
Answer: 8.23 µM

Question: `O=C1CCCN1CCCNS(=O)(=O)c1ccc(Cc2ccc3[nH]c(=O)cc(C(F)(F)F)c3c2)cc1` [Example 68, N-[3-(2-Oxopyrrolidin-1-yl)propyl]-4-(2-oxo-4-trifluoromethyl-1,2-dihydroquinolin-6-ylmethyl)-benzenesulfonamide] was tested. Which IC50 did it give?
Answer: 7.62 µM

Question: Which IC50 does the source give for `O=c1cc(C(F)(F)F)c2cc(Cc3ccc(S(=O)(=O)NCCCCc4ccccc4)cc3)ccc2[nH]1` [Example 70, 4-(2-Oxo-4-trifluoromethyl-1,2-dihydroquinolin-6-ylmethyl)-N-(4-phenylbutyl)-benzenesulfonamide] here?
Answer: > 10 µM

Question: For `CCOc1ccccc1CNS(=O)(=O)c1ccc(Cc2ccc3[nH]c(=O)cc(C(F)(F)F)c3c2)cc1` [Example 71, N-(2-Ethoxybenzyl)-4-(2-oxo-4-trifluoromethyl-1,2-dihydroquinolino-6-ylmethyl)-benzenesulfonamide], which IC50 is on record?
Answer: > 10 µM

Question: With `O=c1cc(C(F)(F)F)c2cc(Cc3ccc(S(=O)(=O)NC(CCO)c4ccccc4)cc3)ccc2[nH]1` (centres unmarked) [Example 72, N-(3-Hydroxy-1-phenylpropyl)-4-(2-oxo-4-trifluoromethyl-1,2-dihydroquinolin-6-ylmethyl)-benzenesulfonamide] as the compound, how does the IC50 read?
Answer: > 10 µM
